Experimental data: the supplement of paper PMC8671470

What was measured:
Settings in all cases: 72 h
HL-60 [1] = system: HL-60
Method in brief: (§1)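 Fifteen myeloid leukaemia lines in RPMI 1640 were treated for 72 h at 37 °C and 5% CO2 with five tenfold doses from 1 to 10,000 nM, in duplicate. ATP luminescence was normalised to vehicle and to a positive control at 10 µM, then fitted with a four-parameter log-logistic model. The IC50 came from these fits.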

KCL-22 [2] = system: KCL-22
Method in brief: as §1

KG-1 [3] = system: KG-1
Method in brief: as §1

ML-2 [4] = system: ML-2
Method in brief: as §1

NOMO-1 [5] = system: NOMO-1
Method in brief: as §1

HL-60 [6] = test: cell viability (% survival relative to DMSO control); higher = less cytotoxic
Method in brief: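 HL-60 cells grown in RPMI 1640 with 10% FBS were rescreened against the full library in 384-well plates, in duplicate, at five tenfold concentrations from 1 to 10,000 nM, alongside DMSO or 100 nM of one of three metabolic inhibitors for 72 h at 37 °C, 5% CO2. Reference wells contained DMSO or 10 μM proteasome inhibitor. Viability was read with CellTiter-Glo and normalised to these reference wells, and where reported, area under the curve was taken from four-parameter log-logistic fits in drc and PharmacoGx.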

BV-173 = test: cell viability (% survival relative to DMSO control, bortezomib = 0%); higher = less cytotoxic
Method in brief: (§2)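 Percent survival is reported as the mean of duplicate wells. Cells from 10 AML and 5 CML lines were plated in 384-well plates containing compounds at 1, 10, 100, 1000 or 10000 nM and kept for 72 h at 37 °C in 5% CO2. Readout used CellTiter-Glo luminescence, scaled so that vehicle equals 100% and a 10 µM positive control equals 0%.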

HEL = test: as above
Method in brief: as §2

HL-60 [7] = test: as above
Method in brief: as §2

K-562 = test: as above
Method in brief: as §2

KCL-22 [8] = test: as above
Method in brief: as §2

KG-1 [9] = test: as above
Method in brief: as §2

KU-812 = test: as above
Method in brief: as §2

LAMA-84 = test: as above
Method in brief: as §2

ML-2 [10] = test: as above
Method in brief: as §2

MOLM-13 = test: as above
Method in brief: as §2

MV4-11 = test: as above
Method in brief: as §2

Mono-Mac-6 = test: as above
Method in brief: as §2

NOMO-1 [11] = test: as above
Method in brief: as §2

SHI-1 = test: as above
Method in brief: as §2

THP-1 = test: as above
Method in brief: as §2

CCCCCOC(=O)Nc1nc(=O)n([C@@H]2O[C@H](C)[C@@H](O)[C@H]2O)cc1F [Capecitabine]
Settings	IC50 (cell viability) [µM]
HL-60 [1]	> 10
KCL-22 [2]	> 10
KG-1 [3]	> 10
ML-2 [4]	> 10
NOMO-1 [5]	> 10

cell viability [%], HL-60 [6]
Settings	0.001 µM	0.01 µM	0.1 µM	1 µM	10 µM
co-treatment: AZD3965 100 nM	103	95.72	109	102	96.6
co-treatment: DMSO vehicle	98.8	100.39	106	99.7	98.7
co-treatment: GSK2194069 100 nM	103	95.88	99.36	102	95.6
co-treatment: pictilisib 100 nM	104	96.7	95.4	108	113

cell viability [%]
Settings	1 nM	10 nM	100 nM	1000 nM	10000 nM
BV-173	100	93.8	102	97.5	88.3
HEL	86.1	87	106	106	87.6
HL-60 [7]	104	85.2	109	101	72
K-562	97.4	92.5	82.9	99.9	93.3
KCL-22 [8]	118	85.4	66.3	109	85.2
KG-1 [9]	98.1	91.1	103	97.5	86.8
KU-812	90.7	93.3	104	102	89.9
LAMA-84	91.9	94.5	87.6	99	99.9
ML-2 [10]	107	95.5	86.1	94.1	98.3
MOLM-13	87.7	104	121	113	70.8
MV4-11	98.2	90.8	110	103	89.7
Mono-Mac-6	100	90.2	113	95.6	93.1
NOMO-1 [11]	99.5	100	94.9	93	99.9
SHI-1	102	99.1	97.1	107	96.7
THP-1	102	100	94.1	105	94.6

Cc1cc2c(C(C)C)c(O)c(O)c(C=O)c2c(O)c1-c1c(C)cc2c(C(C)C)c(O)c(O)c(C=O)c2c1O [Gossypol]
Settings	IC50 (cell viability) [µM]
HL-60 [1]	3.87
KCL-22 [2]	2.86
KG-1 [3]	3.57
ML-2 [4]	2.1
NOMO-1 [5]	2.88

cell viability [%], HL-60 [6]
Settings	0.001 µM	0.01 µM	0.1 µM	1 µM	10 µM
co-treatment: AZD3965 100 nM	101	106	96.1	102	2.22
co-treatment: DMSO vehicle	101	104	96.3	102	2.19
co-treatment: GSK2194069 100 nM	107	104	90	87.6	2.81
co-treatment: pictilisib 100 nM	104	100	93.97	91.4	1.94

cell viability [%]
Settings	1 nM	10 nM	100 nM	1000 nM	10000 nM
BV-173	95.8	90	98.8	68.3	0.788
HEL	101	104	101	108	0.902
HL-60 [7]	107	108	111	117	0.854
K-562	94.6	103	91	110	1.45
KCL-22 [8]	105	101	116	92.7	2.21
KG-1 [9]	95.8	98.9	105	101	5.89
KU-812	95	94.2	105	86.1	0.646
LAMA-84	95.2	106	104	103	0.378
ML-2 [10]	103	103	105	82.6	0.171
MOLM-13	104	97.6	95.2	97.1	-0.453
MV4-11	97.7	91.2	93.6	104	-0.358
Mono-Mac-6	94.6	85.5	112	91.8	0.586
NOMO-1 [11]	97.2	97.5	104	94.1	0.946
SHI-1	101	106	105	98.2	28
THP-1	95.3	90.3	96.6	84.4	0.727
